“Also recorded” adds a separate entry of the source. Where two headings read alike, the source gives them in different places.
How the values were obtained:
[1] = system: MDA-MB-231; assay: Cell viability after 72-hour incubation, CellTiter-Glo 2.0; assay type: cell-based; settings: Homo sapiens, read-out: IC50 (μM) MDA-MB-231
Procedure: (§1) Select tumor lines representative of triple negative breast cancer (MDA-MB-231 and BT549) were identified for testing of efficacy of compounds. Assessment of compound efficacy was determined by a test of cell viability after 72-hour incubation with compound using CellTiter-Glo 2.0 (Promega). […] Selectivity index is defined as the ratio of the calculated IC50 in normal epithelial lines to the calculated IC50 in a cancerous cell line. For CellTiter-Glo cells are plated in a 96-well, opaque, flat-bottomed black plate. Cells are seeded at 5,000 cells per well and allowed to incubate for 6 hours to allow for attachment. Cells are then dosed in a 12-point serial dilution spanning a range of 50 μM to 25 nM. Clofarabine is used as a positive control for all cell lines, and each plate contains media only, and DMSO controls as negatives for each compound tested. Final volume for both cells and compound should be 100 uL. After 72-hour exposure to compound, plates are removed from the incubator and allowed to equilibrate to room temperature for 30 minutes. An equal volume of CellTiter-Glo 2.0 reagent is added to media present in well (100 uL). Plates are then placed onto an orbital shaker and allow to incubate while shaking for 10 to 15 minutes. Raw luminescence readings are obtained. Log transformations of the background subtracted data are analyzed using a 4PL-fit model, and IC50 values are calculated based on the sigmoidal fit of the non-linear regression model.

[2] = system: BT549; assay: as above; assay type: cell-based; settings: Homo sapiens, read-out: IC50 (μM) BT549
Procedure: as §1

[3] = Basic dose escalation test for tolerance of drug concentration; assay type: in vivo; settings: dose escalation 25, 40, 55 mg/kg, Q1D×5 with 2-day washout, B6C3F1/N female mice, FIG. 2
Procedure: Briefly, a cohort of B6C3F1/N female mice were split into three dosing arms: Control (N=2), Clofarabine (N=3), and compound 5 (N=3). The dosing schedule was set based on previous and historical dosing with nucleosides, Q1D×5 with a 2-day washout period before dose escalation. The selected dose concentrations were 25 mg/kg, 40 mg/kg, and 55 mg/kg. Blood was collected weekly by submandibular bleed for ALT and AST measurements, and at necropsy major organs were examined for gross toxicity.

[4] = system: MDA-MB-231 cells; assay: In vivo efficacy in a solid tumor, triple negative breast cancer model; settings: 25 mg/kg intraperitoneal for 2 weeks, s.c. MDA-MB-231 tumors in athymic nude mice, FIG. 1
Procedure: Athymic nude mice (Crl:Nu(NCr)-Fox^1nu; Charles River) were injected s.c. in the right flank with 100 uL MDA-MB-231 cells in 1:1 RPMI 1640 and Cultrex BME Type 3 (1×10^6 cells/mouse). Tumors were allowed to grow until 500 mm^3 (Tumor Volume= […]×Length×Width^2), at which point mice were dosed […] for 2 weeks by intraperitoneal injection with either vehicle (N-Methyl-2-Pyrrolidone (NMP), Polyethylene glycol 400 (PEG400), and saline at a ratio of 1:2:2 v/v/v), 25 mg/kg of Clofarabine, or 25 mg/kg of compound 5. Tumor volumes were measured twice weekly, and bodyweight was measured daily during the dosing period. This was a pilot test to determine anti-tumor growth activity, so regrowth was not measured and the study was terminated two days after the final dose.

[5] = MDA-MB-231 triple negative breast cancer cells, 72-hour exposure, CellTiter-Glo 2.0, 50 μM to 25 nM
[6] = BT-549, BT549 triple negative breast cancer cells, 72-hour exposure, CellTiter-Glo 2.0, 50 μM to 25 nM

SMILES	IC50 [1, 5]	IC50 [2, 6]	further results
COC(=O)[C@H](C)NP(=O)(OC[C@H]1O[C@@H](n2cnc3c(N)nc(C(F)(F)F)nc32)C(F)C1O)Oc1ccccc1 (mixture of isomers) [Compound 12, methyl (2S)-2-[[phenoxy-[[rac-(2R,3R,4S,5R)-5-[6-amino-2-(trifluoromethyl)purin-9-yl]-4-fluoro-3-hydroxy-tetrahydrofuran-2-yl]methoxy]phosphoryl]amino]propanoate]	–	–	IC50 ([1]; MDA-MB-231, 72 h): 13.7 µM; IC50 ([2]; BT-549, 72 h): 13.1 µM
Nc1nc(Cl)nc2c1ncn2[C@@H]1O[C@H](CO)[C@@H](O)[C@@H]1F [Clofarabine, 2-chloro-2′-fluoro-2′-deoxy-9-β-D-arabinofuranosyladenine]	–	–	tolerance of drug concentration (toxicity, survival) [3]: Toxicity was seen immediately following the 55 mg/kg dose
Nc1nc(C(F)(F)F)nc2c1ncn2[C@@H]1O[C@H](CO)[C@@H](O)[C@@H]1F [Compound 5, (2R,3R,4S,5R)-5-[6-amino-2-(trifluoromethyl)purin-9-yl]-4-fluoro-2-(hydroxymethyl)tetrahydrofuran-3-ol]	4.16 µM	0.018 µM	tumor volume / anti-tumor growth activity [4]: effectively reduces tumor volume; also recorded: anti-growth efficacy
CC(C)Nc1nc(C(F)(F)F)nc2c1ncn2[C@@H]1O[C@H](CO)[C@@H](O)[C@@H]1F [Compound 7a, (2R,3R,4S,5R)-4-fluoro-2-(hydroxymethyl)-5-(6-(isopropylamino)-2-(trifluoromethyl)purin-9-yl)tetrahydrofuran-3-ol]	20.5 µM	–	–
CCC(CC)Nc1nc(C(F)(F)F)nc2c1ncn2[C@@H]1O[C@H](CO)[C@@H](O)[C@@H]1F [Compound 7b, (2R,3R,4S,5R)-5-[6-(1-ethylpropylamino)-2-(trifluoromethyl)purin-9-yl]-4-fluoro-2-(hydroxymethyl)tetrahydrofuran-3-ol]	≥ 67 µM	> 50 µM	–
OC[C@H]1O[C@@H](n2cnc3c(NC4CC4)nc(C(F)(F)F)nc32)[C@@H](F)[C@@H]1O [Compound 7c, (2R,3R,4S,5R)-5-[6-(cyclopropylamino)-2-(trifluoromethyl)purin-9-yl]-4-fluoro-2-(hydroxymethyl)tetrahydrofuran-3-ol]	2.58 µM	–	–
CC(Nc1nc(C(F)(F)F)nc2c1ncn2[C@@H]1O[C@H](CO)[C@@H](O)[C@@H]1F)C1CC1 (stereo partly drawn) [Compound 7d, (2R,3R,4S,5R)-5-[6-(1-cyclopropylethylamino)-2-(trifluoromethyl)purin-9-yl]-4-fluoro-2-(hydroxymethyl)tetrahydrofuran-3-ol]	20.5 µM	15.1 µM	–
OC[C@H]1O[C@@H](n2cnc3c(NC4CCC4)nc(C(F)(F)F)nc32)[C@@H](F)[C@@H]1O [Compound 7e, (2R,3R,4S,5R)-5-[6-(cyclobutylamino)-2-(trifluoromethyl)purin-9-yl]-4-fluoro-2-(hydroxymethyl)tetrahydrofuran-3-ol]	–	13.8 µM	–
CC1(Nc2nc(C(F)(F)F)nc3c2ncn3[C@@H]2O[C@H](CO)[C@@H](O)[C@@H]2F)CCC1 [Compound 7f, (2R,3R,4S,5R)-4-fluoro-2-(hydroxymethyl)-5-[6-[(1-methylcyclobutyl)amino]-2-(trifluoromethyl)purin-9-yl]tetrahydrofuran-3-ol]	> 50 µM	13.5 µM	–
OC[C@H]1O[C@@H](n2cnc3c(NC4CCCC4)nc(C(F)(F)F)nc32)[C@@H](F)[C@@H]1O [Compound 7g, (2R,3R,4S,5R)-5-[6-(cyclopentylamino)-2-(trifluoromethyl)purin-9-yl]-4-fluoro-2-(hydroxymethyl)tetrahydrofuran-3-ol]	–	5.89 µM	–
CCCCCCCCCCCC(=O)Nc1nc(C(F)(F)F)nc2c1ncn2[C@@H]1O[C@H](CO)[C@@H](O)[C@@H]1F [Compound 10, N-[9-[(2R,3S,4R,5R)-3-fluoro-4-hydroxy-5-(hydroxymethyl)tetrahydrofuran-2-yl]-2-(trifluoromethyl)purin-6-yl]dodecanamide]	3.19 µM	–	–
CC(C)C(=O)OC[C@H]1O[C@@H](n2cnc3c(N)nc(C(F)(F)F)nc32)[C@@H](F)[C@@H]1O [Compound 15, [(2R,3R,4S,5R)-5-[6-amino-2-(trifluoromethyl)purin-9-yl]-4-fluoro-3-hydroxy-tetrahydrofuran-2-yl]methyl 2-methylpropanoate]	7.12 µM	> 50 µM	–
CC[C@@H](C)[C@@H](N)C(=O)OC[C@H]1O[C@@H](n2cnc3c(N)nc(C(F)(F)F)nc32)[C@@H](F)[C@@H]1O [Compound 18, [(2R,3R,4S,5R)-5-[6-amino-2-(trifluoromethyl)purin-9-yl]-4-fluoro-3-hydroxy-tetrahydrofuran-2-yl]methyl (2R,3R)-2-amino-3-methyl-pentanoate]	11.4 µM	> 50 µM	–

Reference: patent US12103943B2, “Development of novel clofarabine analogs for cancer therapy” (Southern Research Institute, priority 2021, dated 2024)
